Values joined by “and” are separate entries in the source; they are usually repeats but may differ in a detail not shown here. Equal values may be shown once.
Legend:
[1] = biological target: T1, estrone sulfatase (Homo sapiens, UniProt P08842); assay: Estrone sulfatase whole-cell assay on MCF-7 cells; type: cell-based; set-up: Whole-cell assays were performed as originally described by Duncan et al. (Cancer Res., 1993, 53: 298-303) on intact MCF-7 cell monolayers; endogenous in cells; host or cells: MCF-7 (human breast adenocarcinoma), intact monolayers; details: 20 h treatment, 3H-E1S, read-out: IC50 (nM) ± S.E.M., inhibition of estrone sulfatase
T1 sequence (P08842 22-583): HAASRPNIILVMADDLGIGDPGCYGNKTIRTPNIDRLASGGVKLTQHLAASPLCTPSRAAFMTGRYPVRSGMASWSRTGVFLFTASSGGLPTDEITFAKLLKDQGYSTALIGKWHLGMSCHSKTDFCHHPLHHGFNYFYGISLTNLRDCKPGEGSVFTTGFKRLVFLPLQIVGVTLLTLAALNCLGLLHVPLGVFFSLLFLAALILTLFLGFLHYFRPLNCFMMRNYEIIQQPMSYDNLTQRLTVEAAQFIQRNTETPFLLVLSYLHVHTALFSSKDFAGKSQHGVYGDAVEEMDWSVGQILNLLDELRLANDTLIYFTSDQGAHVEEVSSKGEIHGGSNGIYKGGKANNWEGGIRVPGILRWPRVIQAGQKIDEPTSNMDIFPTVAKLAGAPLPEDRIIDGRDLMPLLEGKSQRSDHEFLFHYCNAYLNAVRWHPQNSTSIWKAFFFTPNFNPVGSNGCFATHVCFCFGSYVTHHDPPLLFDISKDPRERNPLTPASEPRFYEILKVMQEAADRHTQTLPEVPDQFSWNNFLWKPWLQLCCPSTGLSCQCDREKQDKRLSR
Procedure: (§1) Two in vitro models on whole cells were used. […] Moreover, these cells were used in the in vivo model of hormono-dependent induced xenografts.
(§2) Estrone Sulfatase Assay on Cells
(§3) Whole-cell assays were performed as originally described by Duncan et al. (Cancer Res., 1993, 53: 298-303) on intact MCF-7 cell monolayers. Assays were carried out with cells in logarithmic growth phase, on 96-well (JEG-3) or 24-well (MCF-7) microplates. Twenty-four hours (JEG-3) or 72 h (MCF-7) before studies, cells were seeded in decomplemented fetal calf serum (dFCS) supplemented medium. Then, the seeding medium was removed and the cells were rinsed with PBS to eliminate any trace of dFCS. Then, ^3H-E1S was added, followed by test compounds ranging from 10^−12 M to 10^−5 M. After 4 h (JEG-3) or 20 h (MCF-7) of treatment, the medium was transferred into either 96-deep-well microplates (JEG-3) or plastic tubes (MCF-7) and centrifuged at 200×g for 10 min to pellet cells before toluene extraction. A fraction of medium was used for toluene extraction in order to separate conjugated substrate and non-conjugated products. The radioactivity in the toluene phase was measured by liquid scintillation counting (LSC). Finally, estrone sulfatase activity was expressed in pmoles of ^3H-E1+^3H-E2 formed per 4 or 20 hours and per μg DNA and estrone sulfatase inhibition in percentage of control activity without inhibitor.

[2] = biological target: T1, estrone sulfatase; assay: Estrone sulfatase whole-cell assay on JEG-3 cells; type: cell-based; set-up: The JEG-3 cell line, derived from a human placental choriocarcinoma, is spontaneously very rich in human estrone sulfatase; endogenous in cells; host or cells: JEG-3 (human placental choriocarcinoma), intact cells; details: 4 h treatment, 3H-E1S, read-out: IC50 (nM) ± S.E.M., inhibition of estrone sulfatase
Procedure: as §1, §2, §3

[3] = system: ovariectomized Wistar female rats; assay: Antiuterotrophic/antisulfatase activity: inhibition of E1S stimulated uterus weight; type: in vivo, rat; details: ovariectomized rats, E1S 50 μg/kg/day s.c., compound oral 1 mg/kg/day for 4 days
Procedure: A short model, derived from Purohit's method, was developed for the evaluation in vivo of nonestrogenic steroid sulfatase inhibitors.
Wistar female rats were ovariectomized and left to rest for 4 weeks. Prior to treatment, the absence of cyclicity was checked by vaginal smears.
Animals were supplemented with estrone sulfate (E1S) at 50 μg/kg/day s.c., alone or combined with oral administration of potential sulfatase inhibitors, at 1 mg/kg/day for 4 days. The uteri were removed, freed of adjacent tissue and wet weighed.
The results are expressed as % of inhibition of the E1S induced stimulation.
The activity of Ex 55 on E1S stimulated uterus weight was evaluated in relation to the standard inhibitor 6,6,7 COUMATE from 0.03 mg/kg/day to 1 mg/kg/day p.o.
In this study, a last administration was performed 24 hours before the necropsy for E1S and E2 serum levels assays. The uteri were removed, freed of adjacent tissue, wet weighed and immediately deep frozen until the determination of sulfatase activity.

[4] = system: prepubescent female rats; assay: Residual estrogenic activity in vivo (uterotrophic assay); details: prepubescent female rats, oral, 1 mg/rat/day for 3 days
Procedure: These compounds were checked for residual estrogenic activity in vivo in the classical uterotrophic assay after 3-day administration by oral route in prepubescent female rats.
Prepubescent female rats were orally treated at 1 mg/rat/day for 3 days. On the day following the last treatment, uteri were removed and wet weight were recorded.
The results are expressed as % of stimulation of uterus weight in comparison with controls.

Compound	IC50 [1]	IC50 [2]	melting point	% stimulation of uterus weight in comparison with controls [4]	% inhibition of the E1S induced stimulation (uterus weight) [3]
C[C@]12CCC3c4ccc(OS(N)(=O)=O)cc4CCC3C1CCC2=O (some centres unmarked) [EMATE, estrone-3-sulfamate, reference compound]	0.06 ± 0.01 nM	3.2 ± 0.2 nM	–	–	–
NS(=O)(=O)Oc1ccc2cc(C3CCCC3)sc2c1 [Ex 30, Sulfamic acid, 2-cyclopentyl-benzothiophene-6-yl ester]	–	78.8 ± 39.8 nM	110 °C	–	–
NS(=O)(=O)Oc1ccc2cc(C3CCCCCC3)sc2c1 [Ex 31, Sulfamic acid, 2-cycloheptyl-benzothiophene-6-yl ester]	–	102 ± 58 nM	132 °C	–	–
NS(=O)(=O)Oc1ccc2cc(C3CCCCCCC3)sc2c1 [Ex 32, Sulfamic acid, 2-cyclooctyl-benzothiophene-6-yl ester]	–	434 ± 94.8 nM	126 °C	–	–
NS(=O)(=O)Oc1ccc2cc(C3CCCCCCCCC3)sc2c1 [Ex 33, Sulfamic acid, 2-cyclodecyl-benzothiophene-6-yl ester]	–	744 ± 140 nM	98 °C	–	–
CC1CCC(c2cc3ccc(OS(N)(=O)=O)cc3s2)CC1 (centres unmarked) [Ex 34, Sulfamic acid, 2-(4-methylcyclohexyl)-benzothiophene-6-yl ester]	–	318 ± 42.9 nM	132 °C	–	–
CC1CCCCC1c1cc2ccc(OS(N)(=O)=O)cc2s1 (centres unmarked) [Ex 35, Sulfamic acid, 2-(2-methylcyclohexyl)-benzothiophene-6-yl ester]	–	147 ± 16.3 nM	110 °C	–	–
CC1(C)CCCC1c1cc2ccc(OS(N)(=O)=O)cc2s1 (centres unmarked) [Ex 36, Sulfamic acid, 2-(2,2-dimethylcyclopentyl)-benzothiophene-6-yl ester]	–	128 ± 14.2 nM	72 °C	–	–
NS(=O)(=O)Oc1ccc2cc(C3C4CC5CC(C4)CC3C5)sc2c1 (centres unmarked) [Ex 37, Sulfamic acid, 2-(2-adamantyl)-benzothiophene-6-yl ester]	–	92.4 ± 15.6 nM	185 °C	–	–
CCCc1cc2ccc(OS(N)(=O)=O)cc2s1 [Ex 38, Sulfamic acid, 2-propyl-benzothiophene-6-yl ester]	–	–	112 °C	–	–
CCCCCCc1cc2ccc(OS(N)(=O)=O)cc2s1 [Ex 39, Sulfamic acid, 2-hexyl-benzothiophene-6-yl ester]	–	–	125 °C	–	–
NS(=O)(=O)Oc1ccc2cc(CC3CCCCC3)sc2c1 [Ex 40, Sulfamic acid, 2-cyclohexylmethyl-benzothiophene-6-yl ester]	–	–	115 °C	–	–
NS(=O)(=O)Oc1ccc2cc(CC3CCCCCC3)sc2c1 [Ex 41, Sulfamic acid, 2-cycloheptylmethyl-benzothiophene-6-yl ester]	–	–	90 °C	–	–

Further lines, with some results ahead:

IC50 [1]	IC50 [2]	melting point	% stimulation of uterus weight in comparison with controls [4]	Compound	% inhibition of the E1S induced stimulation (uterus weight) [3]
0.16 ± 0.03 nM	7 ± 1.2 nM	–	0%	NS(=O)(=O)Oc1ccc2cc(C3CCCCC3)[s+]([O-])c2c1 (centres unmarked) [Ex 42, Sulfamic acid, 2-cyclohexyl-benzothiophene-6-yl-1-oxide ester]	38%
0.24 ± 0.05 nM	10.9 ± 2.6 nM	180 °C	0%	NS(=O)(=O)Oc1ccc2c(c1)S(=O)(=O)C(C1CCCCC1)=C2 [Ex 44, Sulfamic acid, 2-cyclohexyl-benzothiophene-6-yl-1,1-dioxide ester]	70%
0.08 ± 0.01 nM	52.1 ± 4.4 nM	102 °C	4%	NS(=O)(=O)Oc1ccc2c(c1)S(=O)(=O)C(C1CCCCCCCCC1)=C2 [Ex 47, Sulfamic acid, 2-cyclodecyl-benzothiophene-6-yl-1,1-dioxide ester]	62%
0.09 ± 0.02 nM	7.6 ± 1.3 nM	170 °C	3%	CC1CCC(C2=Cc3ccc(OS(N)(=O)=O)cc3S2(=O)=O)CC1 (centres unmarked) [Ex 48, Sulfamic acid, 2-(4-methylcyclohexyl)-benzothiophene-6-yl-1,1-dioxide ester]	60%
–	–	92 °C	8%	CC1CCCCC1C1=Cc2ccc(OS(N)(=O)=O)cc2S1(=O)=O (centres unmarked) [Ex 49, Sulfamic acid, 2-(2-methylcyclohexyl)-benzothiophene-6-yl-1,1-dioxide ester]	–
–	–	172 °C	24%	CC1(C)CCCC1C1=Cc2ccc(OS(N)(=O)=O)cc2S1(=O)=O (centres unmarked) [Ex 50, Sulfamic acid, 2-(2,2-dimethylcyclopentyl)-benzothiophene-6-yl-1,1-dioxide ester]	–
–	24.7 ± 5 nM	159 °C	–	CCCC1=Cc2ccc(OS(N)(=O)=O)cc2S1(=O)=O [Ex 52, Sulfamic acid, 2-propyl-benzothiophene-6-yl-1,1-dioxide ester]	–
–	12.5 ± 3.3 nM	98 °C	–	CCCCCCC1=Cc2ccc(OS(N)(=O)=O)cc2S1(=O)=O [Ex 53, Sulfamic acid, 2-hexyl-benzothiophene-6-yl-1,1-dioxide ester]	–
0.1 ± 0.03 nM	~10 nM and 10 nM	132 °C	6%	NS(=O)(=O)Oc1ccc2c(c1)S(=O)(=O)C(CC1CCCCC1)=C2 [Ex 54, Sulfamic acid, 2-cyclohexylmethyl-benzothiophene-6-yl-1,1-dioxide ester]	49%
–	–	107 °C	–	Cc1c(OS(N)(=O)=O)ccc2cc(C3CCCCCC3)sc12 [Ex 62, Sulfamic acid, 2-cycloheptyl-7-methyl-benzothiophene-6-yl ester]	–
–	566 ± 130 nM	165 °C	–	NS(=O)(=O)Oc1ccc2c3c(sc2c1)CCCC3 [Ex 64, Sulfamic acid, 1,2,3,4-tetrahydro-dibenzothiophene-7-yl ester]	–
–	31.7 ± 9.9 nM	90 °C	–	Cc1c(OS(N)(=O)=O)ccc2c1S(=O)(=O)C(C1CCCCCC1)=C2 [Ex 65, Sulfamic acid, 2-cycloheptyl-7-methyl-benzothiophene-6-yl-1,1-dioxide ester]	–

Reference: patent US7476691B2, “Sulfamate benzothiophene derivatives as steroid sulfatase inhibitors” (Laboratoire Theramex, priority 2003, dated 2009)
